Data published in article doi:10.1101/2024.08.19.608619, “Discovery of potent SARS-CoV-2 nsp3 macrodomain inhibitors uncovers lack of translation to cellular antiviral response” (bioRxiv, 2024).
Read-outs that look alike come from different tables or passages of the source.

Columns and labels:
Experiment in all cases: biochemical
Parameters in all cases: In vitro kinase panel profiling, per cent remaining kinase activity at 10 uM
AMPKα1(h) = target: T1, AMPKα1(h) (Homo sapiens, UniProt Q13131); details: atp_concentration=45, read-out: % of control remaining
T1 construct: gene PRKAA1
T1 sequence (Q13131 whole entry): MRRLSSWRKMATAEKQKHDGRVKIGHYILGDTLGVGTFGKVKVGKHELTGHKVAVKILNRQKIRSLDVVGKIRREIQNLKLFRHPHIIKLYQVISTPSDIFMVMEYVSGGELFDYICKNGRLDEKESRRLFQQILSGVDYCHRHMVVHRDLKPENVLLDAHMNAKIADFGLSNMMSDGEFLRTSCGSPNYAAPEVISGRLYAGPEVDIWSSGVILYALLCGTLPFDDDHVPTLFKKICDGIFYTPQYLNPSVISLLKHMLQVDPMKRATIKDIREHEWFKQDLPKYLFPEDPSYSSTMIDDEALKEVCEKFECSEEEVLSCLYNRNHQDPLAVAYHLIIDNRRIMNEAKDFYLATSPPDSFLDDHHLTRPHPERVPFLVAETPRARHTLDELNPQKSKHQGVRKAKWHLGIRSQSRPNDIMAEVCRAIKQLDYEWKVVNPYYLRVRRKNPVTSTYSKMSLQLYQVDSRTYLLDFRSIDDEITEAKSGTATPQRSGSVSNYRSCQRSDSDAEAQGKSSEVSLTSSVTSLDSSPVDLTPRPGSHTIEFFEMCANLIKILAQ
T1 sequence (P54619 whole entry partner): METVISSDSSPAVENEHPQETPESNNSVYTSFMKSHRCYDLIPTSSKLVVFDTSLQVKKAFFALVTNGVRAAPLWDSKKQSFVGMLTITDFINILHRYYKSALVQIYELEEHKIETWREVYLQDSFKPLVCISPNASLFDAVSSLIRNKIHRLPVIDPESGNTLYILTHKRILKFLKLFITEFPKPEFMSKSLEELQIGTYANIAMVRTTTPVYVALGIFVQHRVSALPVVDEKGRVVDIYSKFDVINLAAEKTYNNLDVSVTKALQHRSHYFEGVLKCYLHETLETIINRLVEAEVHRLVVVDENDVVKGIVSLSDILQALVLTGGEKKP
T1 sequence (Q9Y478 whole entry partner): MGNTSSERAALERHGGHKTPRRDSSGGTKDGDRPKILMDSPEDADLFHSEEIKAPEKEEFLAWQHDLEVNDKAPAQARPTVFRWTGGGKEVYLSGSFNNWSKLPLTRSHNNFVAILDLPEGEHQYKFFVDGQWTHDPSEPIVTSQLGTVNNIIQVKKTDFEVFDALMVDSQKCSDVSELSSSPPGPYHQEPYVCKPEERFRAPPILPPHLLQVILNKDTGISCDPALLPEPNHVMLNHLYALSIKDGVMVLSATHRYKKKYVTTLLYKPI
Excerpt: (§1) We derisk potential for off-target activity by profiling the compound in a CEREP panel, a standard secondary pharmacology assessment, as well as a kinase panel to derisk a potential hinge-binding motif in our leads, and a PARP panel to derisk activity against human […]. Reassuringly, the compounds are selective, with the only off-targets being moderate human CHRM2 and KOR receptors activity associated with ASAP-0011198.

Abl(h) = target: T2, Abl(h) (Homo sapiens, UniProt P00519); details: atp_concentration=45, read-out: % of control remaining
T2 construct: gene ABL1
Excerpt: as §1

CDK1/cyclinB(h) = CDK1/cyclinB(h) (Homo sapiens, UniProt P06493); details: atp_concentration=45, read-out: % of control remaining
Excerpt: as §1

CDK2/cyclinA(h) = CDK2/cyclinA(h) (Homo sapiens, UniProt P24941); details: atp_concentration=45, read-out: % of control remaining
Excerpt: as §1

CK2α2(h) = target: T3, CK2α2(h) (Homo sapiens, UniProt P19784); details: atp_concentration=10, read-out: % of control remaining
T3 construct: gene CSNK2A2
T3 sequence (P19784 whole entry): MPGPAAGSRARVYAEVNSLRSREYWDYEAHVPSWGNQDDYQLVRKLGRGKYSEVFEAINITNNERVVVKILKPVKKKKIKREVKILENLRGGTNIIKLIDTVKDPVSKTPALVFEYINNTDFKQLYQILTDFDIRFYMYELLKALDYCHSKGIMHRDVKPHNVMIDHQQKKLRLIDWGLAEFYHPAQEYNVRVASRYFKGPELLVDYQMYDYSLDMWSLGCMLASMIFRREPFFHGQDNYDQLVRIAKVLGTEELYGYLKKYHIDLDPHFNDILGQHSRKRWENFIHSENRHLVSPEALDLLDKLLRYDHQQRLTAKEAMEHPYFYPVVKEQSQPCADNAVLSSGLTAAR
Excerpt: as §1

EGFR(h) = EGFR(h) (Homo sapiens, UniProt P00533); details: atp_concentration=10, read-out: % of control remaining
Excerpt: as §1

EphA5(h) = EphA5(h) (Homo sapiens, UniProt P54756); details: atp_concentration=10, read-out: % of control remaining
Chain of EphA5(h) (P54756 whole entry): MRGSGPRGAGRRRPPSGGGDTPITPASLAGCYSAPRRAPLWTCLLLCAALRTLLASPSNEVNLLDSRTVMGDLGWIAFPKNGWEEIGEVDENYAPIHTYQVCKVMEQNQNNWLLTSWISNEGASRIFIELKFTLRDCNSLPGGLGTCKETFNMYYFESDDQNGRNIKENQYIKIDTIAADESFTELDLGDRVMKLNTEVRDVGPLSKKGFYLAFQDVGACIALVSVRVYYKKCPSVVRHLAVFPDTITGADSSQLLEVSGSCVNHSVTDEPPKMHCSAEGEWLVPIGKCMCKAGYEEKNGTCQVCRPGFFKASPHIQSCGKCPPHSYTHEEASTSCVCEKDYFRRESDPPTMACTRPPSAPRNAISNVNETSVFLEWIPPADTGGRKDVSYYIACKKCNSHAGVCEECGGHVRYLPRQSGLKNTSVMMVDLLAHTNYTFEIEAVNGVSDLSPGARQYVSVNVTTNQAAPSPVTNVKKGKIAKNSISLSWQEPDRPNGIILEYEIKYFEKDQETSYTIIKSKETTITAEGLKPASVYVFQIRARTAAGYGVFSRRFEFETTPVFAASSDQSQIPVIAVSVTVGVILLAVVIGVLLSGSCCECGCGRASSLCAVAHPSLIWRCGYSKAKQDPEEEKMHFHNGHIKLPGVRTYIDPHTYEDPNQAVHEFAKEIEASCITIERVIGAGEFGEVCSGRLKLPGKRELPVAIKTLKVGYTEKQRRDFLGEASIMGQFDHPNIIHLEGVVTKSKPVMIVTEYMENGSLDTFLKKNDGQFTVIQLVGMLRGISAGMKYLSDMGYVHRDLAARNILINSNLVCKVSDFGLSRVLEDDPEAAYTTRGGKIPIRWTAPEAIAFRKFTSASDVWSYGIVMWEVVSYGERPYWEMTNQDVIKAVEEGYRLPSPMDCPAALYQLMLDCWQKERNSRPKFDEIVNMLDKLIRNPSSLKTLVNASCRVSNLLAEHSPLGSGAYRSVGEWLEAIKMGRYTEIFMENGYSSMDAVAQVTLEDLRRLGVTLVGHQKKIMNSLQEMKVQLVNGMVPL
Excerpt: as §1

GSK3β(h) = target: T4, GSK3β(h) (Homo sapiens, UniProt P49841); details: atp_concentration=15, read-out: % of control remaining
T4 construct: gene GSK3B
T4 sequence (P49841 whole entry): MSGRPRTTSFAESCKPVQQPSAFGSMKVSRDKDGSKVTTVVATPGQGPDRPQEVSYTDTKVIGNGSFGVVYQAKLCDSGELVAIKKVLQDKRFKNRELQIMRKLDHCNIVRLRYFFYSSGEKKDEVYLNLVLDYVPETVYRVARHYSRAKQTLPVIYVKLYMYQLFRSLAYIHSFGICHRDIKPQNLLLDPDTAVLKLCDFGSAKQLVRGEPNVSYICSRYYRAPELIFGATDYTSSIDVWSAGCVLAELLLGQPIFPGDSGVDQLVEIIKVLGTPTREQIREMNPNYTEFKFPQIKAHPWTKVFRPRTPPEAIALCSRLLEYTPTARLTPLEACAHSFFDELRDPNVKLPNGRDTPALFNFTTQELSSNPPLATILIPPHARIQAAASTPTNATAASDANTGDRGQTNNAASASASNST
Excerpt: as §1

IGF-1R(h) = target: T5, IGF-1R(h) (Homo sapiens, UniProt P08069); details: atp_concentration=200, read-out: % of control remaining
T5 construct: gene IGF1R
Excerpt: as §1

MLK1(h) = target: T6, MLK1(h) (Homo sapiens, UniProt P80192); details: atp_concentration=45, read-out: % of control remaining
T6 construct: gene MAP3K9
T6 sequence (P80192 whole entry): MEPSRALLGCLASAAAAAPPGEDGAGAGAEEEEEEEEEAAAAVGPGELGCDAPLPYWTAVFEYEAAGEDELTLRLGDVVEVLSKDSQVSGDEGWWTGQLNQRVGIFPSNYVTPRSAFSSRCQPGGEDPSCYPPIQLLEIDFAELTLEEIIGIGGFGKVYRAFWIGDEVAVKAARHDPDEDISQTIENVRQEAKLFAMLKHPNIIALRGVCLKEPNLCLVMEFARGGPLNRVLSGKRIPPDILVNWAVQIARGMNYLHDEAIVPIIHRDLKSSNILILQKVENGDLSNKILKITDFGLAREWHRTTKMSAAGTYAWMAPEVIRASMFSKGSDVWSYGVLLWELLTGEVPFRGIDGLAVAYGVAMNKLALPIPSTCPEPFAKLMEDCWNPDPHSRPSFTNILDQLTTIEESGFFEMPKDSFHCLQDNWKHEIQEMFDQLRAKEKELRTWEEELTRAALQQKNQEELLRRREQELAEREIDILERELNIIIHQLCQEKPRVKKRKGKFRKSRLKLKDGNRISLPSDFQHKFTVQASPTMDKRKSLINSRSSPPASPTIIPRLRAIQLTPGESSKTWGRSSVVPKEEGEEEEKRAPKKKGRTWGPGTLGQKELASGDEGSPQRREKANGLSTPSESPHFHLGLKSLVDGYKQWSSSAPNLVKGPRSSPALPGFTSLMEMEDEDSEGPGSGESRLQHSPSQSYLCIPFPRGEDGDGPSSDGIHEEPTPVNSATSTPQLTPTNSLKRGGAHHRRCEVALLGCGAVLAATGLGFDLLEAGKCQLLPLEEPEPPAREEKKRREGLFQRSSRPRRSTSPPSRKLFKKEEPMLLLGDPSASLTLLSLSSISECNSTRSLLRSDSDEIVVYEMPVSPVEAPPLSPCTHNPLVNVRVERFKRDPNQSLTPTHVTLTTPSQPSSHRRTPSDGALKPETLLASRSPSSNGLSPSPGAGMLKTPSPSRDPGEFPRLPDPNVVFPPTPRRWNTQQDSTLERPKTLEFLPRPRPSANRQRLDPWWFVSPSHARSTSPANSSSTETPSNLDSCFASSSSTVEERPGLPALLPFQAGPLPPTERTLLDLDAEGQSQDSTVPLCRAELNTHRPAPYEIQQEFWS
Excerpt: as §1

Mnk2(h) = target: T7, Mnk2(h) (Homo sapiens, UniProt Q9HBH9); details: atp_concentration=120, read-out: % of control remaining
T7 construct: gene MKNK2
T7 sequence (Q9HBH9 whole entry): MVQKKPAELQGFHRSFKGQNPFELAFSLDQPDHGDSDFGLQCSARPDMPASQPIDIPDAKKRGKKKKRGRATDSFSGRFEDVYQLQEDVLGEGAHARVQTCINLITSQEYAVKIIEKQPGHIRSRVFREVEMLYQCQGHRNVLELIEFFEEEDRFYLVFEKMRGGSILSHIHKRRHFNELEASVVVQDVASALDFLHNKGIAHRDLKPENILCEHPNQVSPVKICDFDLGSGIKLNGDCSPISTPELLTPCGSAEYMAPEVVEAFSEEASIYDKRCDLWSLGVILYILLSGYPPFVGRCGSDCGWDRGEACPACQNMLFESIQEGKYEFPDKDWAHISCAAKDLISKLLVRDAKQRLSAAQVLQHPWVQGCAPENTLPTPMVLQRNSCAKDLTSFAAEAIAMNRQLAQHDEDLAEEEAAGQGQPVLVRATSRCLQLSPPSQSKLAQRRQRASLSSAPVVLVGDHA
Excerpt: as §1

PAK2(h) = PAK2(h) (Homo sapiens, UniProt Q13177); details: atp_concentration=90, read-out: % of control remaining
Excerpt: as §1

PKA(h) = target: T8, PKA(h) (Homo sapiens, UniProt P17612); details: atp_concentration=10, read-out: % of control remaining
T8 construct: gene PRKACA
Excerpt: as §1

PKBα(h) = target: T9, PKBα(h) (Homo sapiens, UniProt P31749); details: atp_concentration=155, read-out: % of control remaining
T9 construct: gene AKT1
T9 sequence (P31749 whole entry): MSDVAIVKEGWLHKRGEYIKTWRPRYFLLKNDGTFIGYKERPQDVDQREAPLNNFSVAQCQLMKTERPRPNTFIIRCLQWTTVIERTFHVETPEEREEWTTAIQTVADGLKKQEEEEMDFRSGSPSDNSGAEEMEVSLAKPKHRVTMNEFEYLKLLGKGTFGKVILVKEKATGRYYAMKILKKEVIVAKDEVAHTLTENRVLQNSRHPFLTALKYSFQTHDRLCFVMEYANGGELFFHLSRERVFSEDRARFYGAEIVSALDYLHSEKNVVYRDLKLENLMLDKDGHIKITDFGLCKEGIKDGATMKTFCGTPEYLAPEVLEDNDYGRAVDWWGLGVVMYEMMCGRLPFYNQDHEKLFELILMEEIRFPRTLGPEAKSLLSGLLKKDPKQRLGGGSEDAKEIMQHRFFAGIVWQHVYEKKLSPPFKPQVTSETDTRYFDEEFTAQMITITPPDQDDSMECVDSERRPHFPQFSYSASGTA
Excerpt: as §1

TAK1(h) = target: T10, TAK1(h) (Homo sapiens, UniProt O43318); details: atp_concentration=45, read-out: % of control remaining
T10 construct: gene MAP3K7
T10 sequence (O43318 1-606): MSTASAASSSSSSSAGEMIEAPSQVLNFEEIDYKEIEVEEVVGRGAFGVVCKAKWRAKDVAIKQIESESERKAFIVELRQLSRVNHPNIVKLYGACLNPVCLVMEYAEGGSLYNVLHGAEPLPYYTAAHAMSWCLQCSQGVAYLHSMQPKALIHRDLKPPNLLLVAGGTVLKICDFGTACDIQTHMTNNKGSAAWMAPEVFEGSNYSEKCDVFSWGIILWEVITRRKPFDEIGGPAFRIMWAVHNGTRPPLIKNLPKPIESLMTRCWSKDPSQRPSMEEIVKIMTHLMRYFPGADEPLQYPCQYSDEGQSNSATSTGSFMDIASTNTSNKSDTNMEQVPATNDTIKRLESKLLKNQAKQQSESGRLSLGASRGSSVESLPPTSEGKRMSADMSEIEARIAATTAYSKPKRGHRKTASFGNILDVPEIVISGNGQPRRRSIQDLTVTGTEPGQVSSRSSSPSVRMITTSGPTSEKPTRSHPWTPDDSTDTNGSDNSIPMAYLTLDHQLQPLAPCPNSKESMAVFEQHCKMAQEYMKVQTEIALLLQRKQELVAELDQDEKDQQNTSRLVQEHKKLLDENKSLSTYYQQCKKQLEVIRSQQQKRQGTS
Excerpt: as §1

c-RAF(h) = target: T11, c-RAF(h) (Homo sapiens, UniProt P04049); details: atp_concentration=120, read-out: % of control remaining
T11 construct: gene RAF1
Excerpt: as §1

`CC(C)C(Nc1ncnc2[nH]c(C(=O)NC3CCN(C)C3)cc12)c1ccc2c(c1)S(=O)(=O)CCC2` (stereo not drawn) [ASAP-0011198] gave a remaining activity at 10 µM (AMPKα1(h); batch_name=ASAP-0011198-002) of 107%, a remaining activity at 10 µM (Abl(h); batch_name=ASAP-0011198-002) of 100% and a remaining activity at 10 µM (CDK1/cyclinB(h); batch_name=ASAP-0011198-002) of 103%. For the same compound, the remaining activity at 10 µM (CDK2/cyclinA(h); batch_name=ASAP-0011198-002) was 117%, the remaining activity at 10 µM (CK2α2(h); batch_name=ASAP-0011198-002) was 98% and the remaining activity at 10 µM (EGFR(h); batch_name=ASAP-0011198-002) was 102%. It also gave a remaining activity at 10 µM (EphA5(h); batch_name=ASAP-0011198-002) of 100%, a remaining activity at 10 µM (GSK3β(h); batch_name=ASAP-0011198-002) of 93% and a remaining activity at 10 µM (IGF-1R(h); batch_name=ASAP-0011198-002) of 104%. For the same compound, the remaining activity at 10 µM (MLK1(h); batch_name=ASAP-0011198-002) was 96%, the remaining activity at 10 µM (Mnk2(h); batch_name=ASAP-0011198-002) was 99% and the remaining activity at 10 µM (PAK2(h); batch_name=ASAP-0011198-002) was 99%. For the same compound, the remaining activity at 10 µM (PKA(h); batch_name=ASAP-0011198-002) was 89%, the remaining activity at 10 µM (PKBα(h); batch_name=ASAP-0011198-002) was 88% and the remaining activity at 10 µM (TAK1(h); batch_name=ASAP-0011198-002) was 100%. It also gave a remaining activity at 10 µM (c-RAF(h); batch_name=ASAP-0011198-002) of 105%.
`Cn1ncc(-c2cc3c(N[C@@H](c4ccc5c(n4)OCCO5)C(C)(C)C)ncnc3[nH]2)c1C#N` [ASAP-0011221] was tested, and the remaining activity at 10 µM (AMPKα1(h); batch_name=ASAP-0011221-002) was 109%, the remaining activity at 10 µM (Abl(h); batch_name=ASAP-0011221-002) was 81% and the remaining activity at 10 µM (CDK1/cyclinB(h); batch_name=ASAP-0011221-002) was 97%. The remaining activity at 10 µM (CDK2/cyclinA(h); batch_name=ASAP-0011221-002) was 114%, the remaining activity at 10 µM (CK2α2(h); batch_name=ASAP-0011221-002) was 92% and the remaining activity at 10 µM (EGFR(h); batch_name=ASAP-0011221-002) was 99%. The remaining activity at 10 µM (EphA5(h); batch_name=ASAP-0011221-002) was 102%, the remaining activity at 10 µM (GSK3β(h); batch_name=ASAP-0011221-002) was 98% and the remaining activity at 10 µM (IGF-1R(h); batch_name=ASAP-0011221-002) was 77%. For the same compound, the remaining activity at 10 µM (MLK1(h); batch_name=ASAP-0011221-002) was 94%, the remaining activity at 10 µM (Mnk2(h); batch_name=ASAP-0011221-002) was 100% and the remaining activity at 10 µM (PAK2(h); batch_name=ASAP-0011221-002) was 111%. It also gave a remaining activity at 10 µM (PKA(h); batch_name=ASAP-0011221-002) of 95%, a remaining activity at 10 µM (PKBα(h); batch_name=ASAP-0011221-002) of 103% and a remaining activity at 10 µM (TAK1(h); batch_name=ASAP-0011221-002) of 95%. The remaining activity at 10 µM (c-RAF(h); batch_name=ASAP-0011221-002) was 87%.
`Cc1nn(C)cc1-c1cc2c(NC(c3ccc4c(c3)S(=O)(=O)CCC4)C(C)C)ncnc2[nH]1` (stereo not drawn) [ASAP-0011446] showed a remaining activity at 10 µM (AMPKα1(h); batch_name=ASAP-0011446-002) of 102%, a remaining activity at 10 µM (Abl(h); batch_name=ASAP-0011446-002) of 76% and a remaining activity at 10 µM (CDK1/cyclinB(h); batch_name=ASAP-0011446-002) of 91%. For the same compound, the remaining activity at 10 µM (CDK2/cyclinA(h); batch_name=ASAP-0011446-002) was 107%, the remaining activity at 10 µM (CK2α2(h); batch_name=ASAP-0011446-002) was 92% and the remaining activity at 10 µM (EGFR(h); batch_name=ASAP-0011446-002) was 87%. It also gave a remaining activity at 10 µM (EphA5(h); batch_name=ASAP-0011446-002) of 74%, a remaining activity at 10 µM (GSK3β(h); batch_name=ASAP-0011446-002) of 96% and a remaining activity at 10 µM (IGF-1R(h); batch_name=ASAP-0011446-002) of 97%. The remaining activity at 10 µM (MLK1(h); batch_name=ASAP-0011446-002) was 79%, the remaining activity at 10 µM (Mnk2(h); batch_name=ASAP-0011446-002) was 99% and the remaining activity at 10 µM (PAK2(h); batch_name=ASAP-0011446-002) was 100%. The remaining activity at 10 µM (PKA(h); batch_name=ASAP-0011446-002) was 95%, the remaining activity at 10 µM (PKBα(h); batch_name=ASAP-0011446-002) was 91% and the remaining activity at 10 µM (TAK1(h); batch_name=ASAP-0011446-002) was 100%. It also gave a remaining activity at 10 µM (c-RAF(h); batch_name=ASAP-0011446-002) of 93%.
